Laboratory results taken from PMC11342919 (RSC Advances, 2024).

Columns and labels:
[1] = after 2 h
M^pro = conditions: at 100 μM; cited from earlier work

Row | SMILES | starting material consumed by cysteine [1] [%] | inhibition of M^pro (M^pro)
1 | CCCCCCNC(=O)n1cc(F)c(=O)[nH]c1=O [Carmofur] | 75 | –
2 | C=C(CC)C(=O)c1ccc(OCC(=O)O)c(Cl)c1Cl [EA, ethacrynic acid] | – | approximately 20%
